# Assay results as given in paper PMC11637875, “Discovery of novel PARP1/NRP1 dual-targeting inhibitors with strong antitumor potency” (Frontiers in Pharmacology, 2024).
# Assays:
# MDA-MB-231 cells = test: In vitro antiproliferation assay (MTT); format: cell-based; settings: Homo sapiens, MDA-MB-231
# Protocol: Cell viability was measured by MTT assays. […] Afterward, the medium was removed. MTT (5 mg/mL) was dissolved in phosphate-buffered saline (PBS) and filter-sterilized, and then, 20 μL of the prepared MTT solution was added to each well, and the cells were incubated for another 4 h until a purple precipitate was visible. The supernatant was removed by centrifugation, and DMSO (150 μL/well) was added to dissolve the insoluble crystals. The absorbance was determined using an enzyme-linked immunosorbent assay reader at a test wavelength of 570 nm. The assays were performed three times in a parallel manner. The non-linear regression was used to plot a Dose-Response-Inhibition to determine the value of the IC50. […] The data were analyzed using GraphPad Prism 9 software.
# CSK = CSK (Homo sapiens, UniProt P41240); test: Selectivity profile (123 kinase panel); format: biochemical
# ALK6 = ALK6 (Homo sapiens, UniProt O00238); test: Selectivity profile (123 kinase panel); format: biochemical
# GSK3α = GSK3α (Homo sapiens, UniProt P49840); test: Selectivity profile (123 kinase panel); format: biochemical
# MINK = MINK (Homo sapiens, UniProt Q8N4C8); test: Selectivity profile (123 kinase panel); format: biochemical
# PARP1 = target: T1, PARP1 (Homo sapiens, UniProt P09874); test: Microscale thermophoresis (MST) assay; format: binding; settings: labeled protein 50 nM, read-out: PARP1 (K d)
# T1 construct: purchased Abcam
# Protocol: (§1) All samples were diluted in 1 × PBST. […] Affinity Analysis software.
# NRP1 = target: T2, NRP1 (Homo sapiens, UniProt O14786); test: Microscale thermophoresis (MST) assay; format: binding; settings: labeled protein 50 nM, read-out: NRP1 (K d)
# T2 construct: purchased Abcam
# T2 sequence (O14786 22-644 isoform O14786-2 limits assumed): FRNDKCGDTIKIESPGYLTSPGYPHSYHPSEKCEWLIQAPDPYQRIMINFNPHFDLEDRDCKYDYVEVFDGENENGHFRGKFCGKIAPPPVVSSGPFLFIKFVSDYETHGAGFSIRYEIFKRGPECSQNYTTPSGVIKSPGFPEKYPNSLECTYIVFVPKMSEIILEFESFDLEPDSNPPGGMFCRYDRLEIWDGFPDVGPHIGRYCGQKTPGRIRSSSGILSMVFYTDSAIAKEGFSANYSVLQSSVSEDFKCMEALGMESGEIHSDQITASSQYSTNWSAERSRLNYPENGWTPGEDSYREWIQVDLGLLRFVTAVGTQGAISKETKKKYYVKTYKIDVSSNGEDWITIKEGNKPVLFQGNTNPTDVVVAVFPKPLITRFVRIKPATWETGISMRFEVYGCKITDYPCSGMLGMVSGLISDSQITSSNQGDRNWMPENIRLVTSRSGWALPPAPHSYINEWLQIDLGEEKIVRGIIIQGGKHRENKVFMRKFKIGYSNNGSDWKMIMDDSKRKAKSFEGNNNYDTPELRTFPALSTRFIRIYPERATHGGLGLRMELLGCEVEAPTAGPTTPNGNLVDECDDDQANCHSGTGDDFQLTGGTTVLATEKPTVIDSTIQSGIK
# Protocol: as §1
# FGR = FGR (Homo sapiens, UniProt P09769); test: Selectivity profile (123 kinase panel); format: biochemical
# FAK = FAK (Homo sapiens, UniProt Q05397); test: Selectivity profile (123 kinase panel); format: biochemical
# LOK = LOK (Homo sapiens, UniProt O94804); test: Selectivity profile (123 kinase panel); format: biochemical
# BLK = BLK (Homo sapiens, UniProt P51451); test: Selectivity profile (123 kinase panel); format: biochemical
# DYRK4 = DYRK4 (Homo sapiens, UniProt Q9NR20); test: Selectivity profile (123 kinase panel); format: biochemical
# Erk5 = Erk5 (Homo sapiens, UniProt Q13164); test: Selectivity profile (123 kinase panel); format: biochemical
# CaMK1α = CaMK1α (Homo sapiens, UniProt Q14012); test: Selectivity profile (123 kinase panel); format: biochemical
# DDR2 = DDR2 (Homo sapiens, UniProt Q16832); test: Selectivity profile (123 kinase panel); format: biochemical
# BRSK1 = BRSK1 (Homo sapiens, UniProt Q8TDC3); test: Selectivity profile (123 kinase panel); format: biochemical
# HIPK4 = HIPK4 (Homo sapiens, UniProt Q8NE63); test: Selectivity profile (123 kinase panel); format: biochemical
# DNA-PK = DNA-PK (Homo sapiens, UniProt P78527); test: Selectivity profile (123 kinase panel); format: biochemical
# MLK3 = MLK3 (Homo sapiens, UniProt Q16584); test: Selectivity profile (123 kinase panel); format: biochemical
# DYRK3 = DYRK3 (Homo sapiens, UniProt O43781); test: Selectivity profile (123 kinase panel); format: biochemical
# AKT3 = AKT3 (Homo sapiens, UniProt Q9Y243); test: Selectivity profile (123 kinase panel); format: biochemical
# AMPKα1/β1/γ1 = AMPKα1/β1/γ1 (Homo sapiens, UniProt P54619+Q13131+Q9Y478); test: Selectivity profile (123 kinase panel); format: biochemical
# MARK4 = MARK4 (Homo sapiens, UniProt Q96L34); test: Selectivity profile (123 kinase panel); format: biochemical
# PARP2 = PARP2 (Homo sapiens, UniProt Q9UGN5); test: Selectivity profile (other isoforms of PARP and NRP family); format: biochemical
# CK1γ2 = CK1γ2 (Homo sapiens, UniProt P78368); test: Selectivity profile (123 kinase panel); format: biochemical
# GLK = GLK (Homo sapiens, UniProt Q8IVH8); test: Selectivity profile (123 kinase panel); format: biochemical
# PARP10 = PARP10 (Homo sapiens, UniProt Q53GL7); test: Selectivity profile (other isoforms of PARP and NRP family); format: biochemical
# JNK2 = JNK2 (Homo sapiens, UniProt P45984); test: Selectivity profile (123 kinase panel); format: biochemical
# EPHA2 = EPHA2 (Homo sapiens, UniProt P29317); test: Selectivity profile (123 kinase panel); format: biochemical
# Sequence of AKT3 (Q9Y243 whole entry): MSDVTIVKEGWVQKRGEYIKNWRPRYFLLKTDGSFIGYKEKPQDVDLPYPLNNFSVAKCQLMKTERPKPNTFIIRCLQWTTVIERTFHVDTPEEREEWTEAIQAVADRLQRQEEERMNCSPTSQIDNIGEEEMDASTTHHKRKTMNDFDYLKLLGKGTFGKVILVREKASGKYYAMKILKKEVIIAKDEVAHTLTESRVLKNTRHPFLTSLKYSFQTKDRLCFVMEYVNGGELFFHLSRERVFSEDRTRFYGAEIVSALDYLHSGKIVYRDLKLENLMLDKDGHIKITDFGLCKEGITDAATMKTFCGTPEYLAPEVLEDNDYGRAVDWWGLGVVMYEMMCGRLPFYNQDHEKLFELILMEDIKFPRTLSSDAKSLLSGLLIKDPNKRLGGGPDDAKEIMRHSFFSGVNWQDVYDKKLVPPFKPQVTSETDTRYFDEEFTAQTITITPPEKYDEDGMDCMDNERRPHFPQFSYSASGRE
# Sequence of MARK4 (Q96L34 whole entry, canonical isoform): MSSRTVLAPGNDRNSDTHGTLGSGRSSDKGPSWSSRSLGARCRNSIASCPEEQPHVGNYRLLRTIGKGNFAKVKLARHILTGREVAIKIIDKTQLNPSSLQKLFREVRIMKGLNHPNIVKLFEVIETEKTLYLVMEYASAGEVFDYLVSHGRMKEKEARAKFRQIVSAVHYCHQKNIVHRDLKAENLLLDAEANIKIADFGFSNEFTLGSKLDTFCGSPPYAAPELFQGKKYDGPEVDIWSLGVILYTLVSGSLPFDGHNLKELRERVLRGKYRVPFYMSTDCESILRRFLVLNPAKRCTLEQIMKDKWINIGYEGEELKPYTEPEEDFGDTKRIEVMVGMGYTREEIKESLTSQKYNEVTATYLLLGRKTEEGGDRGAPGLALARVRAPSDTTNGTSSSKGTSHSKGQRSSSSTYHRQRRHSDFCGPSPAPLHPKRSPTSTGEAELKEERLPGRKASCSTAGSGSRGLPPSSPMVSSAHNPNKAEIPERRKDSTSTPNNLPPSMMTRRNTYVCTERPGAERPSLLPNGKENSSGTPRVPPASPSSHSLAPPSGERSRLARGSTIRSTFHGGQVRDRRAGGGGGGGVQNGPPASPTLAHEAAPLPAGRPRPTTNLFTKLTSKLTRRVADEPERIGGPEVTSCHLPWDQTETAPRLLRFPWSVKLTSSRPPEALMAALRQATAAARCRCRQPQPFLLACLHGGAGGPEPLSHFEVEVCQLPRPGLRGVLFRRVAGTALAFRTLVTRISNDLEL
# Sequence of JNK2 (P45984 whole entry): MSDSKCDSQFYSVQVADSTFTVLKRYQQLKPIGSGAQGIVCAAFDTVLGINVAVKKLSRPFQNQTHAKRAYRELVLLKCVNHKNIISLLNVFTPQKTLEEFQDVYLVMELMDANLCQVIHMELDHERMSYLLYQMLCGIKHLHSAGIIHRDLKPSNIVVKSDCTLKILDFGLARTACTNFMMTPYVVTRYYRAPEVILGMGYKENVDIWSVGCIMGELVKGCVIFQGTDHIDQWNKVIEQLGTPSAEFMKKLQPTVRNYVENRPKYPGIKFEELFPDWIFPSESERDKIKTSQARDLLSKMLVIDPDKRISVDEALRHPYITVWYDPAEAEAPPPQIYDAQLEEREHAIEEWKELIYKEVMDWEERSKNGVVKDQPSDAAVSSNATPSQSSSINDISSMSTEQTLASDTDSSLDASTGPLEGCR
# Sequence of PARP2 (Q9UGN5 whole entry, canonical isoform): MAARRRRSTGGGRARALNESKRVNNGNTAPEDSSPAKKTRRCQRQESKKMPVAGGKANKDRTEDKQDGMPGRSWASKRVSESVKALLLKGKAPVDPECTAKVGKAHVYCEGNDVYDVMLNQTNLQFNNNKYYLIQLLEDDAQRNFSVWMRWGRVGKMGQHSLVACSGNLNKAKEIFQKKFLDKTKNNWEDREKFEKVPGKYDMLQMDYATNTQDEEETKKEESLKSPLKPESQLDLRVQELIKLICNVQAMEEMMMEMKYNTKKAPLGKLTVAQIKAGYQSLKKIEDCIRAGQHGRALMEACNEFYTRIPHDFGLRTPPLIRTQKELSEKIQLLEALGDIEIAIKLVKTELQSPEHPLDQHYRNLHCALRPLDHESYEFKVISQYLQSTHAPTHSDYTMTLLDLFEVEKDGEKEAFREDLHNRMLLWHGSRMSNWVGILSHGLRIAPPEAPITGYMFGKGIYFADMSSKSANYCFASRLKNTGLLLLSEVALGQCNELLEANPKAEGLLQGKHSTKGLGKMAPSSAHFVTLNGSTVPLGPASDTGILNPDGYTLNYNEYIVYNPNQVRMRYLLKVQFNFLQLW
# Sequence of FGR (P09769 whole entry, species assumed): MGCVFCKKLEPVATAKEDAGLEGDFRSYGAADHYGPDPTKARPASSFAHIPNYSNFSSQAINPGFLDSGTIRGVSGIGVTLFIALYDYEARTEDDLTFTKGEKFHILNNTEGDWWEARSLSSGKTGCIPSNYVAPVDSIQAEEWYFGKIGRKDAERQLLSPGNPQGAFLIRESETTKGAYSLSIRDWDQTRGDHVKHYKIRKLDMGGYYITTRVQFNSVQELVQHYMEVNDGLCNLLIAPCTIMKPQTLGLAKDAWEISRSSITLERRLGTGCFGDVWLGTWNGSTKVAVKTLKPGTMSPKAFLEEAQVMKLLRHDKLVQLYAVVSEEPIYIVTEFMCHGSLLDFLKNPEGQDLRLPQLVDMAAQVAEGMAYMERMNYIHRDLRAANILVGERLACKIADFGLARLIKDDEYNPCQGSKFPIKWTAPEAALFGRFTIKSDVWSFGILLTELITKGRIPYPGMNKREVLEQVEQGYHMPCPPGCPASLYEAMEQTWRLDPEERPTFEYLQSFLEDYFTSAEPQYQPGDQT
# Sequence of FAK (Q05397 whole entry, species assumed): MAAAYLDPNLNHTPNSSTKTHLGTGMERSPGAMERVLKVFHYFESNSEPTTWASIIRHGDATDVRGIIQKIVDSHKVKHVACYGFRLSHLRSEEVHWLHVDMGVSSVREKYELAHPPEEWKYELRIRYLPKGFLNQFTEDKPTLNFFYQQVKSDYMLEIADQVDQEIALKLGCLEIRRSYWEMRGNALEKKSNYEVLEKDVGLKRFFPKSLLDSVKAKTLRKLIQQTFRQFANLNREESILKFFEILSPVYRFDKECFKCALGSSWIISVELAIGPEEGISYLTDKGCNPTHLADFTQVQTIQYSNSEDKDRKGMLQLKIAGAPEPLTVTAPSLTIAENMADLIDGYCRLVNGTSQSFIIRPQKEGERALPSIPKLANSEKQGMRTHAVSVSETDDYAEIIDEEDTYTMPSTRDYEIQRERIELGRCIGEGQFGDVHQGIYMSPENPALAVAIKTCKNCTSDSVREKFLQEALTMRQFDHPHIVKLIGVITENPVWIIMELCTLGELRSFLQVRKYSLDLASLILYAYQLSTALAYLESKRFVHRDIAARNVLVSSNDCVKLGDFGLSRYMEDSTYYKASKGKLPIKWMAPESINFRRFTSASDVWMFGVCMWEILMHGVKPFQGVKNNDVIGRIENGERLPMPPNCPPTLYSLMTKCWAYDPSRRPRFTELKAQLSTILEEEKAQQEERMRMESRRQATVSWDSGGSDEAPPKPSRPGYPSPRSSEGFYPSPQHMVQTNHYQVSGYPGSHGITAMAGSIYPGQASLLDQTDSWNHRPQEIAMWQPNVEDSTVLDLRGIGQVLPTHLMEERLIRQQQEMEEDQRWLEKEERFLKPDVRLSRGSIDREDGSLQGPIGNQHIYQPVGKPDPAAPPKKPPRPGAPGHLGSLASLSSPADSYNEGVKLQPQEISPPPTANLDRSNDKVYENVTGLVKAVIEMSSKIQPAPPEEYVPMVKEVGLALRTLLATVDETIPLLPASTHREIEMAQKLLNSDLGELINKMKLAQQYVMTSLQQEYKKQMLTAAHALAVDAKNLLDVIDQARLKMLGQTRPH
# Sequence of DYRK3 (O43781 whole entry): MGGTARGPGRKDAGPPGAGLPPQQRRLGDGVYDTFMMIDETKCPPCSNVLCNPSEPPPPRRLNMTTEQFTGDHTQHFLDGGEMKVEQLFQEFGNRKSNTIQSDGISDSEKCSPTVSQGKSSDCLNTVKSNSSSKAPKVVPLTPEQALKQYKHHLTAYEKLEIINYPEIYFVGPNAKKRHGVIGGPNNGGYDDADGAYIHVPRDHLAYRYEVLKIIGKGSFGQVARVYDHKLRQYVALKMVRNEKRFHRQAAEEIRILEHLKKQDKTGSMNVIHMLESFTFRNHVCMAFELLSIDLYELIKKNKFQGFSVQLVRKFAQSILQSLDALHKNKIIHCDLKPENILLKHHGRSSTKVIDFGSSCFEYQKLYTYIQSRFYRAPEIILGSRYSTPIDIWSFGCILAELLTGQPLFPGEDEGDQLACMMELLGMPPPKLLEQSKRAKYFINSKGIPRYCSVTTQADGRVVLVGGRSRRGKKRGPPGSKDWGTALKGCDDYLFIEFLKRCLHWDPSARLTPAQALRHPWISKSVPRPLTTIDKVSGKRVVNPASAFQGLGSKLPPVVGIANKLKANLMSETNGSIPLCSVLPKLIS
# Sequence of CK1γ2 (P78368 whole entry): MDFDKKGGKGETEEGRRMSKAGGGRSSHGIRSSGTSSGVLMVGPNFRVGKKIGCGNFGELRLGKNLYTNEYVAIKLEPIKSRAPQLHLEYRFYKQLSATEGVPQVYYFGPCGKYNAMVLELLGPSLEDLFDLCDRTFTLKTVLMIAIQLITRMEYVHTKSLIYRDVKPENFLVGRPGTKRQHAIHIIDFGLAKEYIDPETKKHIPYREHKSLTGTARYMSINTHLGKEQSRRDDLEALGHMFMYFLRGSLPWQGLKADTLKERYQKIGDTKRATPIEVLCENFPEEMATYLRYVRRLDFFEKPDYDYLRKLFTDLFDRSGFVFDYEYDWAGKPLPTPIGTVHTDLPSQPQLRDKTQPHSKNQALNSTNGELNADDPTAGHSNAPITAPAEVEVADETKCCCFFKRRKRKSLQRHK
smiles,measurement,setting,value
NC(N)=NCCC[C@H](NCN1CCN(C(=O)c2cc(Cc3n[nH]c(=O)c4ccccc34)ccc2F)CC1)C(=O)O [PPNR-4],IC50,"MDA-MB-231 cells; 168 h, concentration needed to reduce cell growth by 50% following 7 days cell treatment, read-out: IC50",0.21 µM
same,inhibition at 2 µM,"MDA-MB-231 cells; 2 μM, read-out: cell inhibition rate",> 80%
same,IC50,CSK,> 10 µM
same,IC50,ALK6,> 10 µM
same,IC50,GSK3α,> 10 µM
same,IC50,MINK,> 10 µM
same,Kd,PARP1,0.00715 µM
same,Kd,NRP1,0.0166 µM
same,IC50,FGR,> 10 µM
same,IC50,FAK,> 10 µM
same,IC50,LOK,> 10 µM
same,IC50,BLK,> 10 µM
same,IC50,DYRK4,> 10 µM
same,IC50,Erk5,> 10 µM
same,IC50,CaMK1α,> 10 µM
same,IC50,DDR2,> 10 µM
same,IC50,BRSK1,> 10 µM
same,IC50,HIPK4,> 10 µM
same,IC50,DNA-PK,> 10 µM
same,IC50,MLK3,> 10 µM
same,IC50,DYRK3,> 10 µM
same,IC50,AKT3,> 10 µM
same,IC50,AMPKα1/β1/γ1,> 10 µM
same,IC50,MARK4,> 10 µM
same,IC50,PARP2,> 10 µM
same,IC50,CK1γ2,> 10 µM
same,IC50,GLK,> 10 µM
same,IC50,PARP10,> 10 µM
same,IC50,JNK2,> 10 µM
same,IC50,EPHA2,> 10 µM
